The values below come from PMC8896685 (PLoS ONE, 2022).

Numbered stars: 1 amine (or outer) side, 2 acyl side, 3 side chain; on linkers, the order of the positions; unused ones are H or OH. Square brackets hold non-standard residues; d marks the D form. Side chains are listed from the residue outwards. Peptide text beside a SMILES is read from it. * marks the point of attachment. C18 diacid = O=C(O)CCCCCCCCCCCCCCCCC(=O)*; γGlu = O=C(O)[C@H](CCC(=O)[*:2])N[*:1]; Desaminohistidyl = O=C(CCc1c[nH]cn1)*; Ac4c = NC1(C(=O)O)CCC1; AEEA = NCCOCCOCC(=O)O; Aib = CC(C)(N)C(=O)O

Test [1] concerns DIO rats. Briefly: Subchronic effect on body weight, body composition and food intake in DIO rats. Format: in vivo, rat. The conditions noted are these: three weeks; for Weight loss: 3 nmol/kg each compound s.c. once daily; for Cumulative food intake: 3 nmol/kg s.c. once daily. An excerpt:
Male C57Bl/6J mice were purchased from Jackson Lab (Bar Harbour, ME) or Taconic, (Denmark). Male Sprague Dawley rats were purchased from Taconic (Denmark). Lean animals were fed regular chow diet (Altromin 1324, Brogaarden, Denmark). Obese animals were fed a high-fat diet, 45% kcal from fat (D12492, Research Diets, New Brunswick, NJ) from the age of 4–6 weeks in order to obtain a diet induced obese (DIO) phenotype. Animals were housed under temperature and humidity-controlled conditions in a 12:12 hr light:dark cycle (lights on at 6 a.m.). Rats were housed three per cage during high fat feeding and were single housed five weeks prior to study. Mice were single housed, two per cage, with a partitioning wall where possible. All animals had ad libitum access to diet and water, except when fasted prior to experimental procedures. Animals were acclimatized to study conditions (energy expenditure cages, daily mock handling etc) at least one week prior to first dose. […] At the time of study, animals were 20–30 weeks old with a body weight of 45–50 g (DIO mice) or approximately 600 g (DIO rats). […] Oral glucose tolerance was evaluated on study day 15, 5 h post-dosing (at Cmax). Animals were fasted for 5 h prior to oral administration of glucose (3 g/kg). […] Conscious animals were MR-scanned prior to initiation of treatment and at the end of the treatment period.

The test system of test [2] is DIO rats. Briefly: Oral glucose tolerance in DIO rats at steady state. The format is in vivo, rat. The conditions noted are these: 3 nmol/kg s.c. once daily, 3 g/kg oral glucose, p<0.05. As for the experimental part:
Oral glucose tolerance was evaluated on study day 15, 5 h post-dosing (at Cmax). Animals were fasted for 5 h prior to oral administration of glucose (3 g/kg). […] Conscious animals were MR-scanned prior to initiation of treatment and at the end of the treatment period.

The next test deals with T1, Rat GCGR (Rattus norvegicus, UniProt P30082).
T1 construct: a plasmid encoding either the glucagon receptor or the GLP-1 receptor from the relevant species; expressed in transfected cells
T1 sequence (P30082 27-485): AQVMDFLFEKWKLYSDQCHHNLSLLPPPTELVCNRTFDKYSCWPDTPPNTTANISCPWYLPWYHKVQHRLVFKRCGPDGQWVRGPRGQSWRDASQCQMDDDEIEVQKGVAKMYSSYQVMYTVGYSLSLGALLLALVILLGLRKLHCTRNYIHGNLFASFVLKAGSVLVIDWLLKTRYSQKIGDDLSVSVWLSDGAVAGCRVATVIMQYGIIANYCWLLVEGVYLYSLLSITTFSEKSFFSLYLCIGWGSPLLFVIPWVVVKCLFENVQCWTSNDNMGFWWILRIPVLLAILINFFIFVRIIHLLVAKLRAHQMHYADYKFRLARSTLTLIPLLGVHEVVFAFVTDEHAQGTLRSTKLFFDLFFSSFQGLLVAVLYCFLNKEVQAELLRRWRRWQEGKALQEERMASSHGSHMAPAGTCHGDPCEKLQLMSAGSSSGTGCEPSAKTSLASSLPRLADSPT
Put plainly: Receptor potency, CRE-luciferase functional assay in BHK cells. Format: cell-based. The conditions noted are these: Rat receptors, whole BHK cells, 0% plasma, 3 h 37°C, value (95% CI). As for the experimental part:
The binding assay was performed on cell membranes in the presence of 1% (v/v) species-specific heparin-treated pooled plasma (Bioreclamation IVT, Westbury, NY) diluted in assay buffer (50 mM HEPES supplemented with 5 mM EGTA, 5 mM MgCl2, and 0.005% (v/v) Tween 20, pH7.4). […] Cells stably expressing an individual receptor of interest were grown at 5% CO2, 37°C in DMEM (supplemented with 10% FCS, 0.5 mg/ml G418 and 0.3 mg/ml hygromycin). Membrane preparations were made from cells harvested at approximately 80% confluence, washed and homogenized in 20 mM HEPES with 0.1 mM EDTA, pH 7.4. Protein concentration was determined, and the membranes were stored at -80°C until use. The membrane binding assay was performed in a 96-well OptiPlate (PerkinElmer) in a total volume of 200 μl. Test compounds were dissolved in 80% DMSO and further diluted in assay buffer. 50 μl of diluted plasma was added to the assay plate wells followed by addition of test compounds (25 μl), cell membranes (50 μl, 0.06 mg/ml), SPA beads (20 mg/ml in assay buffer) and radioligand (60,000 cpm/well, corresponding to 0.06 nM; 2200 Ci/mmol. Each assay plate was incubated for 2 h at 30°C, centrifuged at 1500 rpm for 10 minutes and counted in a TopCount NXT instrument (PerkinElmer).
Functional assays were performed on whole cells in the absence or presence of 100% species-specific heparin-treated pooled plasma (Bioreclamation IVT). […] The cells were cultured with DMEM (supplemented with GlutaMAX, 10% FBS, 0.5 mg/ml G418 and 0.3 mg/ml hygromycin) at 5% CO2 and 37°C. At approximately 80–90% confluence, cells were washed with PBS and harvested with Versene (Life Technologies, Carlsbad, CA). The cells were counted and plated into 96-well microtiter plates coated with poly-D-Lys (Corning BioCoat) with 5,000 cells/well and thereafter incubated overnight in growth media. The next day the media was changed to assay buffer (DMEM without phenol red, supplemented with GlutaMAX, 10 mM HEPES, 1% ovalbumin and 0.1% Pluronic F-68) or to 100% plasma. In the absence of plasma, compounds were diluted in assay buffer. In assays tested with plasma, compounds were diluted in pure plasma. Buffer was removed from the plates and 50 μl of test compound dilutions was added to the plates followed by 50 μl of plasma or the same buffer used for compound dilution. The assay plates were incubated for 3 h in a 5% CO2 incubator at 37°C. The plates were then transferred to room temperature for 15 min and 100 μl Steadylite Plus reagent (PerkinElmer) was added to each well. The plates were shaken for 30 min at room temperature while protected from light after which luminescence was measured.
For the receptor binding assays, logIC50 values were calculated using non-linear regression analysis. The error estimation was reported as the 95% confidence interval. […] The calculations were performed in GraphPad Prism 6.4 (GraphPad, San Diego, CA) and error estimation was expressed as the 95% confidence interval. […] Averages, error estimation, ratios and plasma shifts were all calculated on logIC50 or logEC50 values and transformed to the anti-log values for reporting purposes.

Test [3] concerns DIO mice. Put plainly: Subchronic effect on energy expenditure in DIO mice (indirect calorimetry). The format is in vivo, mouse. The settings on record: 5 nmol/kg s.c. once daily, eleven days. As for the experimental part:
DIO mice (n = 8) were treated once daily s.c. in the morning for eleven days with vehicle or 5 nmol/kg NN1177. Forty-eight hours prior to first dose and during the study, the metabolic phenotype was determined using the PhenoMaster system (TSE Systems GmbH, Bad Homburg, Germany). During this period, air flow, temperature, oxygen- and carbon dioxide content, oxygen uptake (VO2) and carbon dioxide production (VCO2) were simultaneously measured using standard indirect calorimetry analysis. The respiratory exchange rate (RER) and energy expenditure (EE) were calculated automatically from VO2 and VCO2. Furthermore, voluntary activity in x-y dimensions was determined. All parameters were measured simultaneously for one min per cage in two cages at a time, resulting in a time resolution of data points of 9 min. Statistical analysis was performed as one-way ANOVA followed by Dunnets post-hoc test. Statistics on body weight was performed as one-way ANOVA at the last day of treatment. Statistics on energy expenditure data was calculated using two-way ANOVA with repeated measures with Bonferroni’s post hoc test. Statistical analysis was performed on average light-dark period values (only raw data, no mean data is presented). p<0.05 was considered statistically significant. GraphPad Prism 6.4 (GraphPad) was used for all in vivo data visualization as well as statistical analyses.

Test [4] has as its system DIO mice. Put plainly: Subchronic effect on glucose tolerance in DIO mice (IPGTT at steady state). The format is in vivo, mouse. The settings on record: after 3 weeks daily s.c. dosing, Cmax (5 h post dosing), p<0.001.

For `CC(C)C[C@H](NC(=O)[C@H](Cc1ccc(O)cc1)NC(=O)[C@H](CCCCN)NC(=O)[C@H](CO)NC(=O)[C@H](CC(C)C)NC(=O)[C@H](CC(=O)O)NC(=O)[C@H](CO)NC(=O)[C@@H](NC(=O)[C@H](Cc1ccccc1)NC(=O)[C@@H](NC(=O)CNC(=O)[C@H](CCC(N)=O)NC(=O)C(C)(C)NC(=O)[C@@H](N)Cc1c[nH]cn1)[C@@H](C)O)[C@@H](C)O)C(=O)N[C@@H](CCC(=O)O)C(=O)N[C@@H](CO)C(=O)N[C@@H](CCCCN)C(=O)N[C@@H](CCCNC(=N)N)C(=O)N[C@@H](C)C(=O)N[C@@H](CCCNC(=N)N)C(=O)N[C@@H](CCC(=O)O)C(=O)N[C@@H](Cc1ccccc1)C(=O)N[C@H](C(=O)N[C@@H](CCC(N)=O)C(=O)N[C@@H](Cc1c[nH]c2ccccc12)C(=O)N[C@@H](CC(C)C)C(=O)N[C@@H](CC(C)C)C(=O)N[C@@H](CCCCNC(=O)CC[C@H](NC(=O)CC[C@H](NC(=O)[C@H](CO)NC(=O)[C@H](CCC(=O)O)NC(=O)[C@H](CO)NC(=O)CC[C@H](NC(=O)CC[C@H](NC(=O)CCCCCCCCCCCCCCCCC(=O)O)C(=O)O)C(=O)O)C(=O)O)C(=O)O)C(=O)N[C@H](C(N)=O)[C@@H](C)O)C(C)C` [NN1177] (H-H[Aib]QGTFTSDLSKYLESKRAREFVQWLLK([γGlu-γGlu-Ser-Glu-Ser-γGlu-γGlu-C18 diacid])T-NH2), in the test with DIO rats [1], the Weight loss was found to be 20% and the Cumulative food intake entry is given as “equal reduction”. Further, in the test with DIO rats [2], the “Oral glucose tolerance vs vehicle” value was “significantly impaired”. The half-maximal effective concentration (EC50) at Rat GCGR is 0.00183 nM. Moreover, in the test on DIO mice [3], the “Body weight loss during treatment period” value was “approximately 30%” and the Physical activity entry is “not affected”. In the test on DIO mice [3] (light and dark period, p<0.001), the “Respiratory exchange ratio (RER)” value is listed as “decreased significantly”. Also, the “Energy expenditure per body weight” value with DIO mice [3] (light and dark period, p<0.01 day 3, p<0.001 day 5–11) was “increased”.
As to `CC(C)C[C@H](NC(=O)[C@H](CC(C)C)NC(=O)[C@H](Cc1c[nH]c2ccccc12)NC(=O)[C@H](CCC(N)=O)NC(=O)[C@@H](NC(=O)[C@H](Cc1ccccc1)NC(=O)[C@H](CCC(=O)O)NC(=O)[C@H](CCCNC(=N)N)NC(=O)[C@H](C)NC(=O)[C@H](C)NC(=O)[C@H](CCCNC(=N)N)NC(=O)[C@H](CO)NC(=O)[C@H](CC(=O)O)NC(=O)[C@H](CC(C)C)NC(=O)[C@H](Cc1ccc(O)cc1)NC(=O)[C@H](CCCCN)NC(=O)[C@H](CO)NC(=O)[C@H](CC(C)C)NC(=O)[C@H](CC(=O)O)NC(=O)[C@H](CO)NC(=O)[C@@H](NC(=O)[C@H](Cc1ccccc1)NC(=O)[C@@H](NC(=O)CNC(=O)[C@H](CCC(=O)O)NC(=O)C(C)(C)NC(=O)[C@@H](N)Cc1c[nH]cn1)[C@@H](C)O)[C@@H](C)O)C(C)C)C(=O)N[C@@H](CC(N)=O)C(=O)N[C@@H](CCCCNC(=O)CC[C@H](NC(=O)CC[C@H](NC(=O)COCCOCCNC(=O)COCCOCCNC(=O)CC[C@H](NC(=O)CCCCCCCCCCCCCCCCC(=O)O)C(=O)O)C(=O)O)C(=O)O)C(N)=O` [GLP-1 reference] (H-H[Aib]EGTFTSDLSKYLDSRAAREFVQWLLNK([γGlu-γGlu-AEEA-AEEA-γGlu-C18 diacid])-NH2), in the test on DIO rats [1], the Weight loss was 5% and the Cumulative food intake result is “equal reduction”. Moreover, on Rat GCGR, the EC50 was 35.3 nM.
Regarding `CC[C@H](C)[C@H](NC(=O)[C@H](Cc1ccccc1)NC(=O)[C@H](CCC(=O)O)NC(=O)[C@H](CCCNC(=N)N)NC(=O)[C@H](C)NC(=O)[C@H](C)NC(=O)[C@H](CCC(N)=O)NC(=O)[C@H](CCC(=O)O)NC(=O)[C@H](CCC(=O)O)NC(=O)[C@H](CC(C)C)NC(=O)[C@H](Cc1ccc(O)cc1)NC(=O)[C@H](CCCCN)NC(=O)[C@H](CO)NC(=O)[C@@H](NC(=O)[C@H](CC(=O)O)NC(=O)[C@H](CO)NC(=O)[C@@H](NC(=O)[C@H](Cc1ccccc1)NC(=O)[C@@H](NC(=O)CNC(=O)[C@H](Cc1c[nH]cn1)NC(=O)C(C)(C)NC(=O)CCc1c[nH]cn1)[C@@H](C)O)[C@@H](C)O)C(C)C)C(=O)N[C@@H](C)C(=O)N[C@@H](Cc1c[nH]c2ccccc12)C(=O)N[C@@H](CC(C)C)C(=O)N[C@@H](CC(C)C)C(=O)N[C@@H](CCCCNC(=O)COCCOCCNC(=O)COCCOCCNC(=O)CC[C@H](NC(=O)CC[C@H](NC(=O)CCCCCCCCCCCCCCCCC(=O)O)C(=O)O)C(=O)O)C(=O)N[C@H](C(N)=O)[C@@H](C)O` [NN1359] (Desaminohistidyl-[Aib]HGTFTSDVSKYLEEQAAREFIAWLLK([AEEA-AEEA-γGlu-γGlu-C18 diacid])T-NH2), the “Basal blood glucose vs vehicle” value in the test on DIO mice [4] is “significantly improved”.
The same measure, in the same setting: the same measure for `CC(C)C[C@H](NC(=O)[C@H](CC(=O)O)NC(=O)[C@H](CC(C)C)NC(=O)[C@H](Cc1ccc(O)cc1)NC(=O)[C@H](CCCCN)NC(=O)[C@H](CO)NC(=O)[C@H](CC(C)C)NC(=O)[C@H](CC(=O)O)NC(=O)[C@H](CO)NC(=O)[C@@H](NC(=O)[C@H](Cc1ccccc1)NC(=O)[C@@H](NC(=O)CNC(=O)[C@H](CCC(N)=O)NC(=O)C1(NC(=O)[C@@H](N)Cc2c[nH]cn2)CCC1)[C@@H](C)O)[C@@H](C)O)C(=O)N[C@@H](CCCNC(=N)N)C(=O)N[C@@H](CCCNC(=N)N)C(=O)N[C@@H](C)C(=O)N[C@@H](CCCNC(=N)N)C(=O)N[C@@H](CC(=O)O)C(=O)N[C@@H](Cc1ccccc1)C(=O)N[C@H](C(=O)N[C@@H](CCC(N)=O)C(=O)N[C@@H](Cc1c[nH]c2ccccc12)C(=O)N[C@@H](CC(C)C)C(=O)N[C@@H](CC(C)C)C(=O)N[C@@H](CCCCNC(=O)CC[C@H](NC(=O)CC[C@H](NC(=O)COCCOCCNC(=O)COCCOCCNC(=O)CC[C@H](NC(=O)CC[C@H](NC(=O)CCCCCCCCCCCCCCCCC(=O)O)C(=O)O)C(=O)O)C(=O)O)C(=O)O)C(=O)N[C@H](C(N)=O)[C@@H](C)O)C(C)C` [NN1151] (H-H[Ac4c]QGTFTSDLSKYLDLRRARDFVQWLLK([γGlu-γGlu-AEEA-AEEA-γGlu-γGlu-C18 diacid])T-NH2): “improved”.

What is called EC50 is the concentration giving half of the maximal effect. A low value points to a more potent agent.
